Patent US7166744B2, “Retinoid derivatives and methods for producing said compounds and anti-cancer pharmaceutical composition comprising said compounds” (Chebigen Co., Ltd., priority 2001, dated 2007)
Entries after “also recorded” stand apart in the source; their conditions may differ.

What was measured:
Assay type in all cases: cell-based
cancer cells [1] = assay: FACS analysis of DNA content; conditions: 10 μM, 96 hours
Description: In order to quantitatively determine the levels of apoptosis, the cells treated with the same conditions as above were subjected to FACS analysis to measure DNA contents (FIG. 11).

MMP-1 mRNA expression = assay: RT-PCR of MMP-1 mRNA in HCT116; conditions: HCT116, 1 μM; for inhibition of MMP-1 mRNA expression: 36 hours
Procedure: (§1) Previously, it was shown that the synthetic retinoid derivatives inhibit the transcriptional activity of AP-1. Also, it is well known that MMP (matrix metalloproteinase), a main target gene of AP-1 is involved in metastasis of cancer cells. Therefore, the inhibitive effects of the retinoid derivatives on metastasis of cancer was examined by RT-PCR analysis. Colon cancer HCT116 cells were treated with 1 μM retinoid for 36 hours. RNA was isolated from the cells and mRNA expression levels of MMP-1, -2 and -3 were analyzed by RT-PCR. […] As the control, GAPDH was used and it was confirmed that its expression was not affected by retinoid. Meanwhile, the expression level of MMP-3 was affected weakly by KCBG40, intermediately by KCBG41 but strongly by KCBG10 (FIG. 9).
RNA was isolated from the cells and mRNA expression levels of MMP-1, -2 and -3 were analyzed by RT-PCR (FIG. 14).

RARs and RXRs = assay: CAT reporter assay, summary for RARs and RXRs (Experimental Example 9); conditions: 1 μM
Description: In order to confirm the effect of KCBG60 according to the present invention on retinoid receptor activity, cells were cotransfected with expression vectors of receptor subfamilies and reporter genes. As the reporter gene, chloramphenicol acetyltransferase (CAT) with a transcription control site reactive to respective receptors was used.
In the transcriptional activity for RXR type receptors, similar results were obtained.

RXRβ = target: T1, RXRβ (Homo sapiens, UniProt P28702); assay: CAT reporter assay, RXRβ; conditions: 1 μM, control = 1.0, RA = 9-cis RA; for expression level of CAT enzyme, RXRβ −: column '−'
T1 construct: expressed in transfected cells
T1 sequence (P28702 1-533): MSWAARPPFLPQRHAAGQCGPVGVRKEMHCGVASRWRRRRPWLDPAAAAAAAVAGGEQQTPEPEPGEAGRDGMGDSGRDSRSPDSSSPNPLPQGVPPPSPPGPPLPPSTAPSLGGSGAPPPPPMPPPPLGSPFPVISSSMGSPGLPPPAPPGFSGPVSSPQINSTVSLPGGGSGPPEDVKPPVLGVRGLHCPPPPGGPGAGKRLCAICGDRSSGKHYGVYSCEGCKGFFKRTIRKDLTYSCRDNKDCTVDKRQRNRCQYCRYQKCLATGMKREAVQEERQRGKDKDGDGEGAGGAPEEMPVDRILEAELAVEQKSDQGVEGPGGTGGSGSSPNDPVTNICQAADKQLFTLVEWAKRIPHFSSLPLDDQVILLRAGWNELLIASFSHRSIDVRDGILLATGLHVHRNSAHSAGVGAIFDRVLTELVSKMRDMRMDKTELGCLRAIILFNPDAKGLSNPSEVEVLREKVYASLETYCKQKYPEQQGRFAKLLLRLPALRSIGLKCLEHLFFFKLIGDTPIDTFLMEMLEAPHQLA
Description: As the reporter gene, chloramphenicol acetyltransferase (CAT) with a transcription control site reactive to respective receptors was used.

[2] = tested on: MCF-7 breast cancer cells; assay: Optical microscopy of treated cells, MCF-7; conditions: MCF-7, 5 μM, 48 hours, compared to HPR
Procedure: (§2) Both colon cancer HCT116 cells and breast cancer MCF-7 cells were treated with 5 μM of the retinoid derivatives KCBG10 and KCBG41 for 48 hours, and photographed by optical microscope (×200). As a control compound, HPR was used at the same concentration. In FIG. 2, the control represents non-treated cells.

[3] = tested on: HCT116 colon cancer cells; assay: Optical microscopy of treated cells, HCT116; conditions: HCT116, 5 μM, 48 hours, compared to HPR
Procedure: as §2

[4] = tested on: PARP (poly(ADP-ribose)polymerase) and CPP32 (caspase-3) cleavage in HCT 116 cells; assay: Western blotting of PARP and CPP32 cleavage; conditions: 5 μM
Procedure: FIG. 6 is the cleavage results of PARP and CPP-32, by a Western blotting analysis, derived from colon cancer cells HCT 116 to which the respective retinoid derivatives were treated.
By DAPI (4,6-diamidino-2-phenylindole) staining assay for staining DNA in cellular nucleus, nuclear condensation and fragmentation, characteristic features of apoptosis, were observed. […] In FIG. 4, the control represents non-treated cells. The sub-G1 DNA contents of colon cancer HTC116 cells and breast cancer MCF-7 cells were measured by FACS (Fluorescence-Activated Cell Sorter) assay to quantify the apoptosis (FIG. 5). Finally, in order to further characterize the apoptosis observed in retinoid derivative-treated cells, the cleavage of apoptosis-related proteins, including PARP (poly(ADP-ribose)polymerase) and CPP32 (caspase-3) by Western blotting. […] PARP cleavage occurred in a time-dependent manner, in parallel with the induction of apoptosis (FIG. 6B). C in FIG. 6 represents the result of Western blotting of non-treated cells.

MMP-3 mRNA expression = assay: RT-PCR of MMP-3 mRNA in HCT116; conditions: HCT116, 1 μM, 36 hours
Procedure: as §1

[5] = tested on: RAR subfamilies (RARα, RARβ, RARγ); assay: CAT ELISA reporter assay of retinoid receptors (Experimental Example 4)
Procedure: As the reporter gene, chloramphenicol acetyltransferase (CAT) gene was used. […] The colon cancer cells were plated at 10^6 in 6-well. At next day, the mixture of DNA (2 μg) and SuperFect reagent was added to the cells. After overnight transfection, the media were exchanged with fresh media containing retinoid at various concentrations for 24 hours and washed with cold 1×PBS. The cells were collected, suspended in 100 μl of 0.25M Tris-HCl (pH 7.6) and lysed by 3 freezing-thawing cycles. After centrifugation (12,000×g, 10 min, 4° C.), 100 μl of the supernatant was recovered. 10 μl of the recovered supernatant was tested for activity of β-galactosidase according to standard prosedures (Sambrook et al., 1989) and 50 μl of the recovered supernatant were tested for activity of the reporter by the CAT ELISA (Boeringer Mannheim, Germany) method. The obtained data for activity of the reporter was normalized with respect to β-gal activity for comparison.

cancer cells [6] = assay: Acridine orange / ethidium bromide double staining; conditions: 10 μM, 96 hours
Description: Therefore, the anti-proliferation effect of KCBG60 is due to the induction of apoptosis.

Compound	relative rate of dead cells having a DNA content of 2N or less (cancer cells [1])	inhibition of MMP-1 mRNA expression (MMP-1 mRNA expression)	activity relative to ATRA for all 3 RARs (RARs and RXRs)	expression level of CAT enzyme, RXRβ + (RXRβ)	expression level of CAT enzyme, RXRβ − (RXRβ)	number of viable cancer cells (microscopy) [2]	number of viable cancer cells (microscopy) [3]	cleavage of PARP and CPP32 (Western blotting) [4]	effect on MMP-3 mRNA expression level (MMP-3 mRNA expression)	retinoid receptor activity (CAT reporter) ([5]; concentration dependence)	retinoid receptor activity relative to ATRA and HPR ([5]; three RAR subfamilies, as the concentration increased)	MMP-1 mRNA reduction compared to ATRA and phenyl butylate (MMP-1 mRNA expression; 24 hours)	reduction of MMP-1 mRNA level (MMP-1 mRNA expression; 24 hours)	acridine orange / ethidium bromide staining colour of cells (cancer cells [6])	activity for RARs and RXRs (RARs and RXRs)
CC1=C(/C=C/C(C)=C/C=C/C(C)=C/C(=O)Nc2ccc(O)cc2)C(C)(C)CCC1 [HPR, (2E,4E,6E,8E)-[3,7-dimethyl-9-(2,6,6-trimethylcyclohex-1-enyl)-nona-2,4,6,8-tetraenoylamino]-4-hydroxyphenylamide]	much higher rates than other groups	affected very little	about 50%	1.4	0.6	–	–	–	–	–	–	–	–	–	–
CCCC(=O)Oc1cc(O)ccc1NC(=O)/C=C(C)/C=C/C=C(C)/C=C/C1=C(C)CCCC1(C)C [KCBG10, 2.2-[(2E,4E,6E,8E)-3,7-Dimethyl-9-(2,6,6-trimethylcyclohex-1-enyl)-nona-2,4,6,8-tetraenoylamino]-5-hydroxyphenylbutanoate]	–	weakly	–	–	–	significant reductions in the number of viable cancer cells; also recorded: kills MCF-7 cells much more than other derivatives	significant reductions in the number of viable cancer cells	induced the cleavage of the proteins	strongly	did not have activity at a low concentration but showed an increase of activity as the concentration increased	–	–	–	–	–
CCCC(=O)Nc1cc(NC(=O)/C=C(C)/C=C/C=C(C)/C=C/C2=C(C)CCCC2(C)C)ccc1O [KCBG41, (2E,4E,6E,8E)-[3,7-dimethyl-9-(2,6,6-trimethylcyclohex-1-enyl)-nona-2,4,6,8-tetraenoylamino]-(3-butyrylamino-4-hydroxy)phenylamide]	–	strongly	–	–	–	significant reductions in the number of viable cancer cells	significant reductions in the number of viable cancer cells; also recorded: more effective on HCT116 than other derivatives	induced the cleavage of the proteins	intermediately	–	about 50%	–	–	–	–
CCCC(=O)Oc1ccc(NC(=O)/C=C(C)/C=C/C=C(C)/C=C/C2=C(C)CCCC2(C)C)cc1 [KCBG60]	much higher rates than other groups	–	–	1.1	0.5	–	–	–	–	–	–	two times increased	about 50%	cells were stained with orange color	activity as low as the control and phenyl butylate-treated group; also recorded: almost no activity for RARs and RXRs
phenyl butylate	–	–	–	1.1	0.5	–	–	–	–	–	–	–	–	cells remained normal green color	–
